“Also recorded” adds a separate entry of the source.
Legend:
ERK [1] = assay: ERK activation in NS20Y neuroblastoma cells, immunoblotting for dually phosphorylated ERK; assay type: cell-based, mouse; conditions: for Effect of inhibitor pretreatment on A9-stimulated ERK activation: A9 1 μM, 45 minutes; for ERK activation: dually phosphorylated ERK by immunoblotting
PKCζ = target: T1, PKCζ (Homo sapiens, UniProt Q05513); conditions: read-out: IC50 for activation of PKCζ; cited from earlier work
T1 sequence (Q05513 1-592): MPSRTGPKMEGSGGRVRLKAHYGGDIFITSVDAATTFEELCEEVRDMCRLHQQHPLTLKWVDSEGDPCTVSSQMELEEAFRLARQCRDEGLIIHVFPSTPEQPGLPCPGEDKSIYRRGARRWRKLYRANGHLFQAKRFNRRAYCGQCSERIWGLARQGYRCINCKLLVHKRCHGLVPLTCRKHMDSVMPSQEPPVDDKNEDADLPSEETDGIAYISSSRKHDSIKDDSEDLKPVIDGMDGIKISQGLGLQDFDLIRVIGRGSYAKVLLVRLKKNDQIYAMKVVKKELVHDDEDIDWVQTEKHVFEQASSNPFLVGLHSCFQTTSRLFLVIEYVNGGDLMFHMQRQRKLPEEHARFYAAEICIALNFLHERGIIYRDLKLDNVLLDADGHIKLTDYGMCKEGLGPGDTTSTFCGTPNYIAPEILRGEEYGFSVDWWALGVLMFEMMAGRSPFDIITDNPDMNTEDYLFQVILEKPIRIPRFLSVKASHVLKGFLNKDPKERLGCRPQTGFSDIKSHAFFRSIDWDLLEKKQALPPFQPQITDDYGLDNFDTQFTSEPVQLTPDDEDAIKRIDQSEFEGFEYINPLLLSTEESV

SH-SY5Y cells = assay: Neurite length in NGF-treated SH-SY5Y neuroblastoma cells; assay type: cell-based, human
Protocol: Analysis of neurite length in SH-SY5Y neuroblastoma cells: SH-SY5Y neuroblastoma cells develop axonal-like processes on treatment with NGF. For analysis of process length, cells (20 fields/well) are randomly photographed at 96 and 168 hours. Neurite lengths are measured on photographic prints using a Houston Instrument HI-PAD digitizing tablet connected to a computer with appropriate software (Bioquant IV); only processes more than twice the cell body length are measured. Data from identically treated wells are combined. […] Histograms are compared using a Mann-Whitney U test (α=0.05), which makes no assumptions about the shape of the distribution.
As disclosed herein, high and sustained ERK activation induces neurite growth in […] neuroblastoma cells and protects neuronal cells from neurotoxins. To test this, SH-SY5Y human neuroblastoma cells were used, which can be induced into neuron-like phenotype by NGF treatment. This is an established method for measuring neurite growth-promoting activity in vitro in Dr. Gold's lab (Gold et al., Neurosignals. 13:122-129, 2004; Gold et al., Exp. Neurol. 147:269-278, 1997). […] Representative micrographs at 168 hours for vehicle (control), NGF (10 ng/ml), and NGF (10 ng/ml) plus A9 (100 nM) are shown in FIG. 5B.

ERK [2] = conditions: NS20Y cells; previous study; cited from earlier work

Molecule | Effect of inhibitor pretreatment on A9-stimulated ERK activation (ERK [1]) | ERK activation (ERK [1]) | further results
N#CC(C#N)=Cc1cc(O)c(O)c(O)c1 [AG82] | did not prevent the effect of A9 | did not stimulate ERK | –
N#CC(=Cc1ccc2[nH]ccc2c1)C(N)=C(C#N)C#N [AG370] | – | moderate stimulation of ERK; also recorded: little or no effect | –
CC(C)(C)c1cc(/C=C(\C#N)C(N)=S)cc(C(C)(C)C)c1O [AG879] | – | little or no effect | ERK stimulation (ERK [1]; at 0.1 μM): moderate stimulation of ERK; ERK stimulation (ERK [1]; at 1 μM): showed no effect
Cc1cc2ncc(-c3ccccc3)nc2cc1C [AG1295] | – | did not stimulate ERK; also recorded: little or no effect | –
CN(C)CCCn1cc(C2=C(c3c[nH]c4ccccc34)C(=O)NC2=O)c2ccccc21 [BisI, bisindolylmaleimide I] | failed to prevent A9-stimulated ERK activity | – | IC50 (PKCζ): 5.8 µM
COc1cccc(-c2cc(=O)c3ccccc3o2)c1N [PD98059, reference compound] | prevented A9 from stimulating ERK activation | – | Effect of MEK inhibitor on A9-induced neurite outgrowth (SH-SY5Y cells; SH-SY5Y cells): did inhibit A9-induced neurite outgrowth
CC(C)(C)n1nc(-c2ccc(Cl)cc2)c2c(N)ncnc21 [PP2] | failed to prevent A9-stimulated ERK activity | – | Block of ERK activation induced by quinpirole (ERK [2]): block ERK activation induced by quinpirole
CN[C@@H]1C[C@H]2O[C@@](C)([C@@H]1OC)n1c3ccccc3c3c4c(c5c6ccccc6n2c5c31)C(=O)NC4 [stauosporine] | prevented A9 from stimulating ERK activation | – | –
NGF: nerve growth factor | – | – | Development of axonal-like processes (SH-SY5Y cells; SH-SY5Y, NGF 10 ng/ml alone): developed long axonal-like processes

— US20090012179A1, “Use of Tyrphostins to Stimulate Neurite Outgrowth” (priority 2004, published 2009)
